Test results: PMC8483441 (Journal of Medicinal Chemistry, 2021)
Values after ≈ are worked out from the molar mass of the structure shown. “Also recorded” adds a separate entry of the source. Read-outs that look alike come from different tables or passages of the source. Square brackets hold non-standard residues; d marks the D form. Peptide text beside a SMILES is read from it. hArg = N=C(N)NCCCC[C@H](N)C(=O)O; Dab = NCC[C@H](N)C(=O)O

What was measured:
E. coli [1] = assay: Antimicrobial resistance, recurrent incubation; type: cell-based; details: for MIC: Escherichia coli
Procedure: To test whether recurrent incubation of bacteria with peptides could induce resistance, E. coli (10^7 cfu/mL) were incubated with peptides (1 μM) or ciprofloxacin (1 μg/mL) for 1 h. After incubation, cells were centrifuged, washed, and grown overnight in Mueller-Hinton medium. The cycle of incubation and growth was repeated in a cyclic manner for 7 days, and each day, cultures were tested for MIC to detect resistance.

S. enterica = type: cell-based, Salmonella enterica; details: 24 h
Procedure: (§1) Human serum was purchased from Sigma (St Louis, USA).
(§2) Incubations were kept at 37 °C for 24 h. Results are the average of three independent studies.

Pseudomonas sp. [2] = assay: Minimum bactericidal concentration (MBC); type: cell-based; details: 50 μL from MIC wells seeded into Petri plates, 24 h; lowest concentration without detectable growth
Procedure: as §2

Pseudomonas sp. [3] = assay: MIC, broth microdilution; type: cell-based; details: Pseudomonas sp. ATCC 15915; Mueller-Hinton medium, 5 × 10^5 CFU/mL, 37 °C, 24 h; average of three independent studies
Procedure: as §1, §2

S. flexneri = details: 24 h
Text: Purified horse red blood cells were acquired from Thermo Fisher Scientific (Hampshire, England). Human serum was purchased from Sigma (St Louis, USA). E. coli was obtained from the Coli Genetic Stock Center (BW25113). S. flexneri (ATCC 29903), A. baumannii (ATCC 15308), Pseudomonas sp. (ATCC 15915), and S. enterica (ATCC 14028) were obtained from the CECT (Valencia, Spain). Clinical strains were supplied by the Vall d’Hebron Hospital (Barcelona, Spain). MRC5 fibroblasts were obtained from the Cytometry and Cell Culture Facility (SCAC, UAB) and originally purchased from ATCC.
The antibiotic activity was defined by the minimum peptide concentration where the microorganism is unable to grow. The assay was done in polypropylene 96-well plates (Greiner, Frickenhausen, Germany) to avoid peptide binding to plate wells. Peptides were dissolved in water containing 0.4% w/v bovine serum albumin (BSA) and 0.02% v/v glacial acetic acid to prevent self-aggregation, following the reference protocol by Wiegand et al.,[42] based on the classical microtiter broth dilution recommended by the […]. Initial bacteria inoculum was adjusted to 5 × 10^5 CFU/mL in Mueller-Hinton (MH) medium. Incubations were kept at 37 °C for 24 h. Results are the average of three independent studies. MIC assays in the presence of serum were performed by incubating the peptide with human serum at a 1:1 ratio. Then, 10^6 cfu/mL of Pseudomonas sp. were incubated with serial dilutions of the peptides for 4 h. To determine the MBC, 50 μL from all wells were seeded into Petri plates and incubated for 24 h. The MBC concentration was attributed to the lowest concentration without detectable bacterial growth for each peptide.

Acinetobacter baumannii = type: cell-based; details: 24 h
Procedure: as §2

Escherichia coli = type: cell-based; details: 24 h
Procedure: as §2

Salmonella enterica = type: cell-based; details: 24 h
Procedure: as §2

A. baumannii = type: cell-based, Acinetobacter baumannii; details: 24 h
Procedure: as §1, §2

Shigella flexneri = details: 50 μL from MIC wells seeded into Petri plates, 24 h; lowest concentration without detectable growth
Procedure: The antibiotic activity was defined by the minimum peptide concentration where the microorganism is unable to grow. The assay was done in polypropylene 96-well plates (Greiner, Frickenhausen, Germany) to avoid peptide binding to plate wells. Peptides were dissolved in water containing 0.4% w/v bovine serum albumin (BSA) and 0.02% v/v glacial acetic acid to prevent self-aggregation, following the reference protocol by Wiegand et al.,[42] based on the classical microtiter broth dilution recommended by the National Committee of Laboratory Safety and Standards (NCLSS). Initial bacteria inoculum was adjusted to 5 × 10^5 CFU/mL in Mueller-Hinton (MH) medium. Incubations were kept at 37 °C for 24 h. Results are the average of three independent studies. […] To determine the MBC, 50 μL from all wells were seeded into Petri plates and incubated for 24 h. The MBC concentration was attributed to the lowest concentration without detectable bacterial growth for each peptide.

Pseudomonas sp. [4] = assay: MIC of peptides incubated with human serum; type: cell-based; details: peptide incubated with human serum 1:1; 10^6 cfu/mL Pseudomonas sp., 4 h
Procedure: as §2

[5] = Cytotoxicity in mammalian cells (MTT assay); type: cell-based; details: MRC-5 cytotoxicity (IC50)
Procedure: MRC-5 cells were grown in Eagle’s minimum essential medium (MEMα), supplemented with 10% fetal bovine serum (FBS). 96-well plates were seeded with 3 × 10^4 cells/well and cultured overnight in order to get cells adhered into the plate and then incubated with two-fold peptide serial dilutions. After 4 h of incubation, the medium containing the peptides was replaced by MEMα supplemented with FBS and 3-(4,5-dimethylthiazol-2-yl)-2,5-diphenyltetrazolium bromide (MTT) at 0.4 mg/mL and incubated for 150 min. Detection of formazan crystals in the living cells was done by cell disruption by addition of 200 μL of dimethyl sulfoxide (DMSO) followed by absorbance measuring at 600 nm in a Tecan Infinite F Nano+ microplate reader (Tecan, Germany). Results are the average of three independent studies.

E. coli [6] = type: cell-based, Escherichia coli; details: 24 h
Procedure: as §1, §2

horse red blood cells = assay: Hemolytic activity; type: cell-based
Procedure: The peptide toxicity was determined detecting the disruption of horse red blood cells, following a previous assay report.[35] 10-fold diluted cells in PBS were centrifuged three times at 800g to eliminate the hemoglobin from disrupted cells. After the last resuspension, erythrocytes were incubated with the peptides for 4 h at 37 °C. The detection was done measuring the supernatant absorbance in a VICTOR3 multilabel plate reader (Perkin Elmer, Waltham, Massachusetts) at 540 nm in a microplate reader. Percentage of hemolysis was calculated through a pattern done with dilutions of total cell lysis done with a 1% Triton X-100 buffer. Results are the average of three independent studies.

50% (v/v) Human Serum = details: up to 480 min
[7] = 50 μL from MIC wells seeded into Petri plates, lowest concentration without detectable growth

| Molecule | MBC Pseudomonas sp. (Pseudomonas sp. [2]) | MIC Pseudomonas sp. (Pseudomonas sp. [3]) | MBC Shigella flexneri (Shigella flexneri) | MIC in Pseudomonas sp., peptides incubated with human serum (Pseudomonas sp. [4]) | MIC S. enterica (S. enterica) | MIC S. flexneri (S. flexneri) | IC50 [5] | MBC Acinetobacter baumannii (Acinetobacter baumannii) | MBC Escherichia coli (Escherichia coli) | MBC Salmonella enterica (Salmonella enterica) | MIC E. coli (E. coli [6]) | MIC A. baumannii (A. baumannii) | hemolysis % (250 μM peptide) (horse red blood cells; red cells of horse, 4 h, 250) | cleaved bond (50% (v/v) Human Serum) | other results |
| --- | --- | --- | --- | --- | --- | --- | --- | --- | --- | --- | --- | --- | --- | --- | --- |
| CC[C@H](C)[C@H](NC(=O)[C@H](CCCCN)NC(=O)[C@H](CCC(=O)O)NC(=O)[C@H](CCCCN)NC(=O)[C@H](CO)NC(=O)[C@H](CCCCN)NC(=O)[C@H](CCCNC(=N)N)NC(=O)[C@H](Cc1ccccc1)NC(=O)[C@H](Cc1ccccc1)NC(=O)[C@H](CC(=O)O)NC(=O)CNC(=O)[C@H](CC(C)C)NC(=O)[C@@H](N)CC(C)C)C(=O)NCC(=O)N[C@@H](CCCCN)C(=O)N[C@@H](CCC(=O)O)C(=O)N[C@@H](Cc1ccccc1)C(=O)N[C@@H](CCCCN)C(=O)N[C@@H](CCCNC(=N)N)C(=O)N[C@H](C(=O)N[C@H](C(=O)N[C@@H](CCC(N)=O)C(=O)N[C@@H](CCCNC(=N)N)C(=O)N[C@H](C(=O)N[C@@H](CCCCN)C(=O)N[C@@H](CC(=O)O)C(=O)N[C@@H](Cc1ccccc1)C(=O)N[C@@H](CC(C)C)C(=O)N[C@@H](CCCNC(=N)N)C(=O)N[C@@H](CC(N)=O)C(=O)N[C@@H](CC(C)C)C(=O)N[C@H](C(=O)N1CCC[C@H]1C(=O)N[C@@H](CCCNC(=N)N)C(=O)N[C@H](C(=O)N[C@@H](CCC(=O)O)C(=O)N[C@@H](CO)C(=O)O)[C@@H](C)O)C(C)C)[C@@H](C)CC)C(C)C)[C@@H](C)CC [LL-37, reference compound] | 1.56 µM (≈ 7.01 µg/mL) | 1.56 µM (≈ 7.01 µg/mL) | 12.5 µM (≈ 56.2 µg/mL) |  |  |  |  |  |  |  |  |  |  |  | increase in MIC (induced resistance) in E. coli (E. coli [1]; 7 rounds of incubation with 1 μM peptide, below the MIC): did not detect a significant increase in MIC; MIC S. enterica (S. enterica; S. enterica ATCC 14028, Mueller-Hinton medium, 5 × 10^5 CFU/mL, 37 °C, average of three independent studies): 12.5 µM (≈ 56.2 µg/mL); MIC S. flexneri (S. flexneri; S. flexneri ATCC 29903, Mueller-Hinton medium, 5 × 10^5 CFU/mL, 37 °C, average of three independent studies): 12.5 µM (≈ 56.2 µg/mL); MBC Acinetobacter baumannii (Acinetobacter baumannii; [7]): 6.25 µM (≈ 28.1 µg/mL); MBC Escherichia coli (Escherichia coli; [7]): 1.56 µM (≈ 7.01 µg/mL); MBC Salmonella enterica (Salmonella enterica; [7]): 12.5 µM (≈ 56.2 µg/mL); MIC A. baumannii (A. baumannii; A. baumannii ATCC 15308, Mueller-Hinton medium, 5 × 10^5 CFU/mL, 37 °C, average of three independent studies): 6.25 µM (≈ 28.1 µg/mL) |
| O=C(O)c1cn(C2CC2)c2cc(N3CCNCC3)c(F)cc2c1=O [ciprofloxacin] |  |  |  |  |  |  |  |  |  |  |  |  |  |  | MIC (E. coli [1]; after four cycles of incubation with ciprofloxacin (1 μM; 1 μg/mL elsewhere in the source), 1 h per cycle, 10^7 cfu/mL, read-out: MIC against E. coli after four cycles of incubation): 5 µM (≈ 1.66 µg/mL); MIC (E. coli [1]; start of recurrent incubation, read-out: MIC against E. coli before resistance cycles): 1.5 µM (≈ 0.497 µg/mL) |
| CC[C@H](C)[C@H](NC(=O)[C@H](C)NC(=O)[C@H](CCN)NC(=O)[C@H](CCSC)NC(=O)[C@H](C)NC(=O)[C@@H](NC(=O)[C@@H](NC(=O)[C@H](CCN)NC(=O)[C@@H]1CCCN1C(=O)[C@H](CO)NC(=O)[C@@H](NC(=O)[C@H](Cc1c[nH]cn1)NC(=O)[C@H](CCC(N)=O)NC(=O)[C@@H](NC(=O)[C@H](C)NC(=O)[C@H](Cc1ccccc1)NC(=O)[C@H](Cc1c[nH]c2ccccc12)NC(=O)[C@H](CCC(N)=O)NC(=O)[C@H](C)NC(=O)[C@H](CCN)NC(=O)[C@@H](NC(=O)[C@H](Cc1ccccc1)NC(=O)[C@@H]1CCCN1C(=O)[C@@H](N)CCN)[C@@H](C)O)[C@@H](C)CC)[C@@H](C)CC)[C@@H](C)O)[C@@H](C)CC)C(=O)N[C@@H](CC(N)=O)C(=O)N[C@@H](CC(N)=O)C(=O)N[C@@H](Cc1ccc(O)cc1)C(=O)N[C@@H](CCN)C(=O)N[C@@H](Cc1c[nH]c2ccccc12)C(=O)N[C@@H](CCN)C(N)=O [compound 3] (H-[Dab]PFT[Dab]AQWFAIQHISP[Dab]TIAM[Dab]AINNY[Dab]W[Dab]-NH2) | 3.13 µM (≈ 10.7 µg/mL) | 3.13 µM (≈ 10.7 µg/mL) | 6.25 µM (≈ 21.4 µg/mL) | 12.5 µM | 50 µM (≈ 171 µg/mL) | 6.25 µM (≈ 21.4 µg/mL) | 182 ± 9 µM | 50 µM (≈ 171 µg/mL) | 6.25 µM (≈ 21.4 µg/mL) | 50 µM (≈ 171 µg/mL) | 6.25 µM (≈ 21.4 µg/mL) | 50 µM (≈ 171 µg/mL) | 14 ± 6% |  | hemolysis % (250 μM peptide) (horse red blood cells): 10% |
| CC[C@H](C)[C@H](NC(=O)[C@H](C)NC(=O)[C@H](CCCCNC(=N)N)NC(=O)[C@H](CCSC)NC(=O)[C@H](C)NC(=O)[C@@H](NC(=O)[C@@H](NC(=O)[C@H](CCCCNC(=N)N)NC(=O)[C@@H]1CCCN1C(=O)[C@H](CO)NC(=O)[C@@H](NC(=O)[C@H](Cc1c[nH]cn1)NC(=O)[C@H](CCC(N)=O)NC(=O)[C@@H](NC(=O)[C@H](C)NC(=O)[C@H](Cc1ccccc1)NC(=O)[C@H](Cc1c[nH]c2ccccc12)NC(=O)[C@H](CCC(N)=O)NC(=O)[C@H](C)NC(=O)[C@H](CCCCNC(=N)N)NC(=O)[C@@H](NC(=O)[C@H](Cc1ccccc1)NC(=O)[C@@H]1CCCN1C(=O)[C@@H](N)CCCCNC(=N)N)[C@@H](C)O)[C@@H](C)CC)[C@@H](C)CC)[C@@H](C)O)[C@@H](C)CC)C(=O)N[C@@H](CC(N)=O)C(=O)N[C@@H](CC(N)=O)C(=O)N[C@@H](Cc1ccc(O)cc1)C(=O)N[C@@H](CCCCNC(=N)N)C(=O)N[C@@H](Cc1c[nH]c2ccccc12)C(=O)N[C@@H](CCCCNC(=N)N)C(N)=O [compound 4] (H-[hArg]PFT[hArg]AQWFAIQHISP[hArg]TIAM[hArg]AINNY[hArg]W[hArg]-NH2) | 3.13 µM (≈ 12 µg/mL) | 3.13 µM (≈ 12 µg/mL) | 3.13 µM (≈ 12 µg/mL) | 6.25 µM | 25 µM (≈ 96 µg/mL) | 3.13 µM (≈ 12 µg/mL) | 7.6 ± 0.7 µM | 12.5 µM (≈ 48 µg/mL) | 6.25 µM (≈ 24 µg/mL) | 25 µM (≈ 96 µg/mL) | 6.25 µM (≈ 24 µg/mL) | 12.5 µM (≈ 48 µg/mL) | 43 ± 1% |  |  |
| OPFTOAQWFAIQHISPOTIAMOAINNYOWO |  |  |  |  |  |  |  |  |  |  |  |  |  | Pro2-Phe3 | fragment found (50% (v/v) Human Serum): OPFTOAQWFAIQHISPO-------------; also recorded: -----------------TIAMOAINNYOWO; also recorded: OPFTOAQWFAIQHIS---------------; also recorded: ------QWFAIQHISPOTIAMOAINNY--- |
| RPFTRAQWFAIQHISPRTIAMRAINNYRWR |  |  |  |  |  |  |  |  |  |  |  |  |  | Pro2-Phe3 |  |
